Experimental data as given in patent US4895937A, “5-ioso-2-pyrimidinone nucleoside” (The Research Foundation of State University of New York, priority 1988, dated 1990).

What was measured:
[1] = tested on: BVdU resistant strain of HSV-1; assay: Antiherpes activity, BVdU resistant strain (Example 10); assay type: cell-based; settings: Human alphaherpesvirus 1, read-out: plaque-forming units as % of control
Procedure: (§1) IPdR and 5-bromo-2-pyrimidinone-2-deoxyribonucleoside (BrPdR) were tested for antiherpes activity according to procedures described by Cheng, Y.-C., et al. Antimicrob. Agents Chemother (1976) 10, 119.

PFA-resistant strains = assay: Antiherpes activity, PFA-resistant strain (Example 10); assay type: cell-based
Procedure: as §1

In the case of `O=c1ncc(I)cn1[C@H]1C[C@H](O)[C@@H](CO)O1` [IPdR, 1-(2-Deoxy-β-D-Ribofuranosyl)-5-iodo-2-pyrimidinone], the activity at 100 µM [1] is reported as 14%, the “activity against PFA-resistant strains” value (PFA-resistant strains) is reported as “retained full activity” and the activity at 100 µM (PFA-resistant strains; 100 μM, read-out: plaque-forming units as % of control) is reported as 0.1%.
